Laboratory results published in the NIST ThermoML archive (doi:10.1016/j.jct.2016.05.015).
± gives the expanded uncertainty stated by the source.

What was measured:
[1] = 100 kPa, Liquid; for viscosity: Capillary tube (Ostwald / Ubbelohde) method; for speed of sound: Frequency=2 MHz, Linear variable-path acoustic interferometer; for mass density: Vibrating tube method
[2] = xn = mol fraction of the nth substance listed; conditions: 100 kPa, Liquid, x2 = 0; for viscosity: Capillary tube (Ostwald / Ubbelohde) method; for speed of sound: Frequency=2 MHz, Linear variable-path acoustic interferometer; for mass density: Vibrating tube method

Row | Structure (SMILES) | viscosity ([1]; 303.15 K) | speed of sound ([1]; 303.15 K) | mass density ([1]; 303.15 K) | viscosity ([1]; 308.15 K) | speed of sound ([1]; 308.15 K) | mass density ([1]; 308.15 K) | viscosity ([1]; 313.15 K) | mass density ([1]; 313.15 K) | viscosity ([1]; 318.15 K) | speed of sound ([1]; 318.15 K) | mass density ([1]; 318.15 K) | viscosity ([2]; 303.15 K) | speed of sound ([2]; 303.15 K) | mass density ([2]; 303.15 K) | viscosity ([2]; 308.15 K) | speed of sound ([2]; 308.15 K) | mass density ([2]; 308.15 K) | viscosity ([2]; 313.15 K) | speed of sound ([2]; 313.15 K) | mass density ([2]; 313.15 K) | further results
1 | Brc1ccccc1 [bromobenzene] | 0.982 ± 0.1 mPa·s | 1136 ± 7 m/s | 1481.52 ± 20 kg/m3 | 0.953 ± 0.1 mPa·s | 1122 ± 6.9 m/s | 1475.36 ± 20 kg/m3 | 0.892 ± 0.1 mPa·s | 1468.02 ± 20 kg/m3 | 0.848 ± 0.1 mPa·s | 1099 ± 6.7 m/s | 1461.36 ± 20 kg/m3 | – | – | – | – | – | – | – | – | – | speed of sound ([1]; 313.15 K): 1109 ± 6.8 m/s
2 | Clc1ccccc1 [chlorobenzene] | 0.712 ± 0.1 mPa·s | 1248.2 ± 7.7 m/s | 1095.54 ± 20 kg/m3 | 0.675 ± 0.1 mPa·s | 1226 ± 7.5 m/s | 1089.72 ± 20 kg/m3 | 0.634 ± 0.1 mPa·s | 1084.71 ± 20 kg/m3 | 0.602 ± 0.1 mPa·s | 1181 ± 7.3 m/s | 1079.45 ± 20 kg/m3 | – | – | – | – | – | – | – | – | – | speed of sound ([1]; 313.15 K): 1206 ± 7.4 m/s
3 | Clc1ccccc1 [chlorobenzene] + Nc1cccc(Cl)c1 | – | – | – | – | – | – | – | – | – | – | – | 0.712 ± 0.1 mPa·s | 1248.2 ± 7.7 m/s | 1095.54 ± 20 kg/m3 | 0.675 ± 0.1 mPa·s | 1226 ± 7.5 m/s | 1089.72 ± 20 kg/m3 | 0.634 ± 0.1 mPa·s | 1206 ± 7.4 m/s | 1084.71 ± 20 kg/m3 | viscosity ([2]; 318.15 K): 0.602 ± 0.1 mPa·s; speed of sound ([2]; 318.15 K): 1181 ± 7.3 m/s; mass density ([2]; 318.15 K): 1079.45 ± 20 kg/m3
4 | O=[N+]([O-])c1ccccc1 [nitrobenzene] + Nc1cccc(Cl)c1 | – | – | – | – | – | – | – | – | – | – | – | 1.627 ± 0.1 mPa·s | 1438 ± 8.8 m/s | 1193.45 ± 20 kg/m3 | 1.498 ± 0.1 mPa·s | 1420 ± 8.7 m/s | 1188.29 ± 20 kg/m3 | 1.388 ± 0.1 mPa·s | 1402 ± 8.6 m/s | 1183.69 ± 20 kg/m3 | viscosity ([2]; 318.15 K): 1.275 ± 0.1 mPa·s; speed of sound ([2]; 318.15 K): 1385 ± 8.5 m/s; mass density ([2]; 318.15 K): 1177.32 ± 20 kg/m3
5 | Brc1ccccc1 [bromobenzene] + Nc1cccc(Cl)c1 | – | – | – | – | – | – | – | – | – | – | – | 0.982 ± 0.1 mPa·s | 1136 ± 7 m/s | 1481.52 ± 20 kg/m3 | 0.953 ± 0.1 mPa·s | 1122 ± 6.9 m/s | 1475.36 ± 20 kg/m3 | 0.892 ± 0.1 mPa·s | 1109 ± 6.8 m/s | 1468.02 ± 20 kg/m3 | viscosity ([2]; 318.15 K): 0.848 ± 0.1 mPa·s; speed of sound ([2]; 318.15 K): 1099 ± 6.7 m/s; mass density ([2]; 318.15 K): 1461.36 ± 20 kg/m3
6 | O=[N+]([O-])c1ccccc1 [nitrobenzene] | 1.627 ± 0.1 mPa·s | 1438 ± 8.8 m/s | 1193.45 ± 20 kg/m3 | 1.498 ± 0.1 mPa·s | 1420 ± 8.7 m/s | 1188.29 ± 20 kg/m3 | 1.388 ± 0.1 mPa·s | 1183.69 ± 20 kg/m3 | 1.275 ± 0.1 mPa·s | 1385 ± 8.5 m/s | 1177.32 ± 20 kg/m3 | – | – | – | – | – | – | – | – | – | –
